Source: patent publication US11840707B2, “Co-culture system and method for in vitro assessment of reverse cholesterol transport” (INSTITUT DE CARDIOLOGIE DE MONTREAL, priority 2016, dated 2023)

How the values were obtained:
HepG2 hepatocytes = assay: Co-culture assay: Specific Chol Uptake into HepG2 hepatocytes on insert membrane; assay type: cell-based, human; details: for reduction of hepatic Specific Chol Uptake: 10 μM, HepG2 overnight and during co-culture
Text: (§1) Total Chol Efflux is the sum of co-culture medium counts plus hepatic counts, while Total Chol Uptake is defined as hepatic counts only. Both Chol Efflux and Chol Uptake are expressed as % of total counts in the system. Background values, corresponding to basal co-culture medium (without acceptors), can be subtracted from the corresponding values in presence of acceptors to obtain Specific Chol Efflux (%) and Specific Chol Uptake (%) values.
(§2) Simultaneous Measurement of Cholesterol Flux Between Cholesterol-Loaded, ^3H-Cholesterol-Labeled J774 Cells and Target HepG2 Hepatocytes in a Transwell-Clear™ Insert.
(§3) J774 cells were seeded at a density of 8,000 cells per cm^2 in 1 mL of Dulbecco's minimal essential medium (DMEM, high glucose) and supplemented with 10% fetal bovine serum (FBS) and 1% penicillin/streptomycin in standard 12-well (3.8 cm^2) flat bottom plates (Corning).
(§4) Transwell-Clear™ 12-well plates (Corning, cat. #3642), each consisting of 12 cylindrical cell culture inserts (1.12 cm^2 insert/well) were bathed with 2 mL Eagle's minimal essential medium (EMEM, low glucose) distributed as follows: 0.5 mL in the insert and 1.5 mL in the well. Loaded plates were pre-incubated in an incubator at 37° C. with 5% CO2 for 30-45 min without cells in order to improve later cell attachment and maximize cell spreading on the insert membrane during cell culture. After pre-incubation, the media was removed. The wells of the Transwell plates were then filled with 1.5 mL of EMEM (low glucose) supplemented with 10% FBS and 1% penicillin/streptomycin and HepG2 cells were seeded at a density of 60,000 cells per cm^2 in 0.5 mL EMEM (low glucose) supplemented with 10% FBS and 1% penicillin/streptomycin on each insert.
(§5) Following seeding in plates or inserts, both cell types were placed in a cell incubator at 37° C. filled with humidified air and 5% CO2 and incubated for 72 h.
(§6) Following the 72-hour incubation and achieving a J774 cell confluence of 70-80%, the J774 cells were washed with 1 mL per well of PBS at 20° C. After the wash, 1 mL of Labeling Medium was added to each well. The Labeling Medium contained: 1% FBS, 1% penicillin/streptomycin, 2 μCi/mL of ^3H-cholesterol (Perkin-Elmer, NET139005MC), 50 μg protein/mL of acetylated LDL (acLDL) and DMEM (high glucose). The cells were then incubated for 24 hr at 37° C. in a cell incubator filled with humidified air and 5% CO2. One plate served as a reference to determine the labeled-cholesterol level in cells prior to co-culture assay.
(§7) Following the 72-hour incubation, the culture medium was removed from HepG2 cells grown on the insert membrane and replaced with 2 mL of fresh EMEM (low glucose) supplemented with 10% FBS and 1% penicillin/streptomycin. The cells were then incubated for an additional 24 hours at 37° C. in an incubator filled with humidified air and 5% CO2.
(§8) Following the 24-hour incubation of J774 cells, the labeling medium was removed from the plates and discarded. The cells were then washed with 1 mL of phosphate-buffered saline (PBS) at 20° C. and replaced with Equilibration Medium containing: DMEM (high glucose), 0.2% Bovine Serum Albumin (BSA) (low endotoxin, fatty acid-free, Sigma, cat. #A8806) and the appropriate Treatment under study. The J774 culture was then incubated for 24 hours.
(§9) J774 cells ongoing the ^3H-cholesterol equilibration phase and/or HepG2 cells before co-culture can be treated by various means. Pharmacological agent is diluted in the appropriate culture medium with 0.2% BSA and vehicle (solvent) is tested in parallel. Modulation of gene expression is also accomplished at this step, by transfection of siRNA according to the manufacturer's protocol, and a control non-silencing RNA is tested in parallel.
After 24 hour of incubation, equilibration medium from J774 culture and culture medium from HepG2 cells were discarded. Cells were washed with 1 mL (J774) or 2 mL (HepG2) of PBS at 20° C. and the wash medium discarded.

J774 macrophages = assay: Co-culture assay: Specific Chol Efflux from 3H-cholesterol-labeled J774 macrophages; assay type: cell-based, murine
Text: as §1, §2, §3
as §4, with “Loaded” for “Transwell-Clear™ 12-well plates (Corning, cat. #3642), each consisting of 12 cylindrical cell culture inserts (1.12 cm^2 insert/well) were bathed with 2 mL Eagle's minimal essential medium (EMEM, low glucose) distributed as follows: 0.5 mL in the insert and 1.5 mL in the well. Loaded”
as §5, §6, §7, §8, §9
After 24 hour of incubation, equilibration medium from J774 culture and culture medium from HepG2 cells were discarded. Cells were washed with 1 mL (J774) or 2 mL (HepG2) of PBS at 20° C. and the wash medium discarded. Transwell inserts containing HepG2 cells were removed and transferred to each well containing the J774 culture. 2 mL of co-culture media (DMEM without phenol red, high glucose, 4.5 g/L) were added to each well. The resulting co-culture system was incubated in a cell incubator at 37° C. for 24 hours.

[1] = J774 pre-treated overnight 10 μM, acceptors HS and DHS, vs vehicle DMSO
[2] = 24 h co-culture, one-site non-linear regression
[3] = purified acceptor, 24 h co-culture, one-site non-linear regression
[4] = 10 nM in co-culture medium for 24 h, acceptor complete human serum

Q: `O=S(=O)(c1ccccc1)N(CC(F)(F)F)c1ccc(C(O)(C(F)(F)F)C(F)(F)F)cc1` [TO901317] was tested. Which “effect on Specific Chol Uptake” value (HepG2 hepatocytes; [1]) did it give?
A: increased

Q: What about the “effect on Specific Chol Efflux” value (J774 macrophages; [1]) of the same molecule?
A: increased

Q: With `CC[C@H](C)C(=O)O[C@H]1CCC=C2C=C[C@H](C)[C@H](CC[C@@H]3C[C@@H](O)CC(=O)O3)[C@H]21` [mevastatin] as the molecule, how does the “effect on Specific Chol Uptake” value (HepG2 hepatocytes; HepG2 pre-treated overnight 25 μM, acceptor apoB-depleted serum) read?
A: reduced effect

Q: What about the “effect on Specific Chol Uptake” value (HepG2 hepatocytes; HepG2 pre-treated overnight 25 μM, acceptor complete human serum) of the same molecule?
A: significantly increased

Q: And the “effect on Chol Uptake” value (HepG2 hepatocytes; hepatocytes pre-treated 10 μM, acceptor apoB-depleted serum, compared to complete serum)?
A: reduced effect

Q: What about the “effect on hepatic Chol Uptake” value (HepG2 hepatocytes; hepatocytes pre-treated 10 μM, acceptor complete human serum) of the same molecule?
A: increased

Q: And the “effect on Specific Chol Efflux” value (J774 macrophages; HepG2 pre-treated overnight 25 μM, acceptor human serum)?
A: did not change

Q: What about the “effect on Chol Efflux to human serum” value (J774 macrophages; hepatocytes pre-treated 10 μM, acceptor human serum) of the same molecule?
A: no effect

Q: How did the “reduction of hepatic Specific Chol Uptake” value (“reduction” for short) (HepG2 hepatocytes; acceptor apoB-depleted serum) turn out when `CCOC(=O)N1c2ccc(C(F)(F)F)cc2[C@@H](N(Cc2cc(C(F)(F)F)cc(C(F)(F)F)c2)C(=O)OC)C[C@H]1CC` [torcetrapib] was run?
A: 21%

Q: And the “reduction” value (HepG2 hepatocytes; acceptor apoB-depleted serum, listed as Torcetrapib)?
A: reduced

Q: What about the “reduction” value (HepG2 hepatocytes; acceptor complete serum) of the same molecule?
A: 31%

Q: What about the “reduction” value (HepG2 hepatocytes; acceptor complete serum, listed as Torcetrapib) of the same molecule?
A: reduced

Q: And the “effect on Specific Efflux” value (J774 macrophages; 10 μM, HepG2 overnight and during co-culture, acceptors HS and DHS)?
A: did not affect

Q: Which results are given for “ApoA-I: human apolipoprotein A-I, purified, used as Chol acceptor”?
A: Bmax (maximal flux), Specific Uptake (HepG2 hepatocytes; [2]): 0.83 ± 0.03%; kA (affinity constant), Specific Uptake (HepG2 hepatocytes; [3]): 7.0 ± 1.0 μg protein/mL; Bmax (maximal flux), Specific Efflux (J774 macrophages; [2]): 15.9 ± 0.9%; Specific Chol Efflux compared to LDL (J774 macrophages; acceptor at 100 μg/ml, 24 h co-culture): higher; kA (affinity constant), Specific Efflux (J774 macrophages; [3]): 7.2 ± 1.4 μg protein/mL

Q: With “PCSK9 D374Y: purified human PCSK9 gain-of-function D374Y mutant protein” as the molecule, how does the “effect on Specific Chol Uptake” value (HepG2 hepatocytes; [4]) read?
A: markedly reduced

Q: And the “effect on Specific Chol Efflux” value (J774 macrophages; [4])?
A: no effect

Q: What about the “effect on Specific Chol Efflux” value (J774 macrophages; 10 nM in co-culture medium for 24 h, acceptor complete human serum, listed as purified PCSK9 mutant) of the same molecule?
A: did not influence
